In patent US10377719B2, “Trypanosomes inhibitors” (Hoffmann-La Roche Inc., priority 2015, dated 2019):

Tested on: Trypanosoma brucei rhodesiense STIB900
Test: Activity against Trypanosoma brucei rhodesiense STIB900 (Alamar Blue assay)
Assay type: cell-based
Details: Trypanosoma brucei, 70 h, bloodstream forms of T. b. rhodesiense STIB 900, 70 h incubation
Procedure: Activity Against Trypanosoma brucei Rhodesiense STIB900
This stock was isolated in 1982 from a human patient in Tanzania and after several mouse passages cloned and adapted to axenic culture conditions (Baltz, T., D. Baltz, C. Giroud, and J. Crockett. 1985, Cultivation in a semi-defined medium of animal infective forms of Trypanosoma brucei, T. equiperdum, T. evansi, T. rhodesiense and T. gambiense. EMBO Journal 4:1273-1277). Minimum Essential Medium (50 μl) supplemented with 25 mM HEPES, 1 g/l additional glucose, 1% MEM non-essential amino acids (100×), 0.2 mM 2-mercaptoethanol, 1 mM Na-pyruvate and 15% heat inactivated horse serum was added to each well of a 96-well microtiter plate. Serial drug dilutions of eleven 3-fold dilution steps covering a range from […] were prepared. Then 4×10^3 bloodstream forms of T. b. rhodesiense STIB 900 in 50 μl was added to each well and the plate incubated at 37° C. under a 5% CO2 atmosphere for 70 h. 10 μl Alamar Blue (resazurin, 12.5 mg in 100 ml double-distilled water) was then added to each well and incubation continued for a further 2-4 h (Räz, B., M. Iten, Y. Grether-Buhler, R. Kaminsky, and R. Brun. 1997, The Alamar Blue assay to determine drug sensitivity of African trypanosomes (T.b. rhodesiense and T.b. gambiense) in vitro. Acta Trop 68:139-47). Then the plates were read with a Spectramax Gemini XS microplate fluorometer (Molecular Devices Cooperation, Sunnyvale, Calif., USA) using an excitation wave length of 536 nm and an emission wave length of 588 nm. The IC50 values were calculated by linear regression (Huber, W. Koella, J. C. 1993, A comparison of the three methods of estimating EC50 in studies of drug resistance of malaria parasites. Acta Trop. 55, 257-261) from the sigmoidal dose inhibition curves using SoftmaxPro software (Molecular Devices Cooperation, Sunnyvale, Calif., USA). Melarsoprol is used as control.

| IC50 [µM] | SMILES |
| --- | --- |
| 0.05 | N#CC1(NC(=O)[C@H](Cc2ccc(OC(F)(F)F)c(Cl)c2)NC(=O)c2ccn(-c3ccc(F)cc3)n2)CC1 [Example 6, (S)—N-(3-(3-chloro-4-(trifluoromethoxy)phenyl)-1-(1-cyanocyclopropylamino)-1-oxopropan-2-yl)-1-(4-fluorophenyl)-1H-pyrazole-3-carboxamide] |
| 0.005 | N#CC1(NC(=O)[C@H](Cc2ccc(OC(F)(F)F)c(Cl)c2)NC(=O)c2cnn(-c3ccccc3)n2)CC1 [Example 16, (S)—N-(3-(3-chloro-4-(trifluoromethoxy)phenyl)-1-(1-cyanocyclopropylamino)-1-oxopropan-2-yl)-2-phenyl-2H-1,2,3-triazole-4-carboxamide] |
| 0.003 | N#CC1(NC(=O)[C@H](Cc2ccc(OC(F)(F)F)c(Cl)c2)NC(=O)c2cc(C(F)(F)F)nn2CC(F)F)CC1 [Example 1, (S)—N-(3-(3-chloro-4-(trifluoromethoxy)phenyl)-1-(1-cyanocyclopropylamino)-1-oxopropan-2-yl)-1-(2,2-difluoroethyl)-3-(trifluoromethyl)-1H-pyrazole-5-carboxamide] |
| 0.071 | Cc1cc(C(=O)N[C@@H](Cc2ccc(OC(F)(F)F)c(Cl)c2)C(=O)NC2(C#N)CC2)n(C)n1 [Example 3, (S)—N-(3-(3-chloro-4-(trifluoromethoxy)phenyl)-1-(1-cyanocyclopropylamino)-1-oxopropan-2-yl)-1,3-dimethyl-1H-pyrazole-5-carboxamide] |
| 0.004 | CC(C)n1ncc(C(=O)N[C@@H](Cc2ccc(OC(F)(F)F)c(Cl)c2)C(=O)NC2(C#N)CC2)n1 [Example 33, N-[(2S)-3-[3-chloro-4-(trifluoromethoxy)phenyl]-1-[(1-cyanocyclopropyl)amino]-1-oxopropan-2-yl]-2-propan-2-yltriazole-4-carboxamide] |
| 0.009 | N#CC1(NC(=O)[C@H](Cc2ccc(OC(F)(F)F)c(Cl)c2)NC(=O)c2cnn(-c3ccc(F)cc3)n2)CC1 [Example 9, (S)—N-(3-(3-chloro-4-(trifluoromethoxy)phenyl)-1-(1-cyanocyclopropylamino)-1-oxopropan-2-yl)-2-(4-fluorophenyl)-2H-1,2,3-triazole-4-carboxamide] |
| 0.067 | CSc1ccc(-n2ncc(C(=O)N[C@@H](Cc3ccc(OC(F)(F)F)c(Cl)c3)C(=O)NC3(C#N)CC3)n2)cc1 [Example 23, N-[(2S)-3-[3-chloro-4-(trifluoromethoxy)phenyl]-1-[(1-cyanocyclopropyl)amino]-1-oxopropan-2-yl]-2-(4-methylsulfanylphenyl)triazole-4-carboxamide] |
| 0.162 | COc1ccc(-c2cc(C(=O)N[C@@H](Cc3ccc(OC(F)(F)F)c(Cl)c3)C(=O)NC3(C#N)CC3)[nH]n2)cc1 [Example 12, (S)—N-(3-(3-chloro-4-(trifluoromethoxy)phenyl)-1-(1-cyanocyclopropylamino)-1-oxopropan-2-yl)-3-(4-methoxyphenyl)-1H-pyrazole-5-carboxamide] |
| 10.1 | N#CC1(NC(=O)[C@H](Cc2ccc(OC(F)(F)F)c(Cl)c2)NC(c2nnc(-c3ccc(Br)cc3)o2)C(F)(F)F)CC1 (stereo partly drawn) [Example 19, (2S)-2-[[1-[5-(4-bromophenyl)-1,3,4-oxadiazol-2-yl]-2,2,2-trifluoroethyl]amino]-3-[3-chloro-4-(trifluoromethoxy)phenyl]-N-(1-cyanocyclopropyl)propanamide] |
| 0.005 | N#CC1(NC(=O)[C@H](Cc2ccc(OC(F)(F)F)c(Cl)c2)NC(=O)c2noc(-c3cccc(F)c3)n2)CC1 [Example 15, (S)—N-(3-(3-chloro-4-(trifluoromethoxy)phenyl)-1-(1-cyanocyclopropylamino)-1-oxopropan-2-yl)-5-(3-fluorophenyl)-1,2,4-oxadiazole-3-carboxamide] |
| 0.022 | N#CC1(NC(=O)[C@H](Cc2ccc(OC(F)(F)F)c(Cl)c2)NC(=O)c2cnn(-c3ccc(Cl)cc3)n2)CC1 [Example 24, 2-(4-chlorophenyl)-N-[(2S)-3-[3-chloro-4-(trifluoromethoxy)phenyl]-1-[(1-cyanocyclopropyl)amino]-1-oxopropan-2-yl]triazole-4-carboxamide] |
| 0.068 | Cc1oc(-c2ccc(Cl)cc2)nc1C(=O)N[C@@H](Cc1ccc(OC(F)(F)F)c(Cl)c1)C(=O)NC1(C#N)CC1 [Example 8, (S)—N-(3-(3-chloro-4-(trifluoromethoxy)phenyl)-1-(1-cyanocyclopropylamino)-1-oxopropan-2-yl)-2-(4-chlorophenyl)-5-methyloxazole-4-carboxamide] |
| 0.005 | Cn1nc(C2CC2)cc1C(=O)N[C@@H](Cc1ccc(OC(F)(F)F)c(Cl)c1)C(=O)NC1(C#N)CC1 [Example 4, (S)—N-(3-(3-chloro-4-(trifluoromethoxy)phenyl)-1-(1-cyanocyclopropylamino)-1-oxopropan-2-yl)-3-cyclopropyl-1-methyl-1H-pyrazole-5-carboxamide] |
| 1.33 | N#CC1(NC(=O)[C@H](Cc2cccc(Cl)c2)NC(=O)c2cnn(-c3ccc(F)cc3)n2)CC1 [Example 25, N-[(2S)-3-(3-chlorophenyl)-1-[(1-cyanocyclopropyl)amino]-1-oxopropan-2-yl]-2-(4-fluorophenyl)triazole-4-carboxamide] |
| 0.028 | N#CC1(NC(=O)[C@H](Cc2ccc(OC(F)(F)F)c(Cl)c2)NC(=O)c2cnn(-c3ccc(Br)cc3)n2)CC1 [Example 35, 2-(4-bromophenyl)-N-[(2S)-3-[3-chloro-4-(trifluoromethoxy)phenyl]-1-[(1-cyanocyclopropyl)amino]-1-oxopropan-2-yl]triazole-4-carboxamide] |
| 2.23 | CC(C)C[C@H](NC(=O)c1cnn(-c2ccc(F)cc2)n1)C(=O)NC1(C#N)CC1 [Example 32, N-[(2S)-1-[(1-cyanocyclopropyl)amino]-4-methyl-1-oxopentan-2-yl]-2-(4-fluorophenyl)triazole-4-carboxamide] |
| 0.005 | Cn1nc(C(F)(F)F)cc1C(=O)N[C@@H](Cc1ccc(OC(F)(F)F)c(Cl)c1)C(=O)NC1(C#N)CC1 [Example 2, (S)—N-(3-(3-chloro-4-(trifluoromethoxy)phenyl)-1-(1-cyanocyclopropylamino)-1-oxopropan-2-yl)-1-methyl-3-(trifluoromethyl)-1H-pyrazole-5-carboxamide] |
| 0.001 | N#CC1(NC(=O)[C@H](Cc2ccc(OC(F)(F)F)c(Cl)c2)NC(=O)c2cnn(-c3cccnc3)n2)CC1 [Example 26, N-[(2S)-3-[3-chloro-4-(trifluoromethoxy)phenyl]-1-[(1-cyanocyclopropyl)amino]-1-oxopropan-2-yl]-2-pyridin-3-yltriazole-4-carboxamide] |
| 0.019 | N#CC1(NC(=O)[C@H](Cc2ccc(OCc3ccccc3)cc2)NC(=O)c2cnn(-c3ccc(F)cc3)n2)CC1 [Example 31, N-[(2S)-1-[(1-cyanocyclopropyl)amino]-1-oxo-3-(4-phenylmethoxyphenyl)propan-2-yl]-2-(4-fluorophenyl)triazole-4-carboxamide] |
| 0.278 | N#CC1(NC(=O)[C@H](Cc2ccc(OC(F)(F)F)c(Cl)c2)NC(=O)c2cc(-c3ccc(F)cc3)n[nH]2)CC1 [Example 11, (S)—N-(3-(3-chloro-4-(trifluoromethoxy)phenyl)-1-(1-cyanocyclopropylamino)-1-oxopropan-2-yl)-3-(4-fluorophenyl)-1H-pyrazole-5-carboxamide] |
| 0.145 | Cc1nn(-c2ccccc2)nc1C(=O)N[C@@H](Cc1ccc(OC(F)(F)F)c(Cl)c1)C(=O)NC1(C#N)CC1 [Example 14, (S)—N-(3-(3-chloro-4-(trifluoromethoxy)phenyl)-1-(1-cyanocyclopropylamino)-1-oxopropan-2-yl)-5-methyl-2-phenyl-2H-1,2,3-triazole-4-carboxamide] |
| 0.19 | N#CC1(NC(=O)[C@H](Cc2ccc(OCC3CC3)c(Cl)c2)NC(=O)c2cnn(-c3ccc(F)cc3)n2)CC1 [Example 28, N-[(2S)-3-[3-chloro-4-(cyclopropylmethoxy)phenyl]-1-[(1-cyanocyclopropyl)amino]-1-oxopropan-2-yl]-2-(4-fluorophenyl)triazole-4-carboxamide] |
| 0.065 | COCCOc1ccc(C[C@H](NC(=O)c2cnn(-c3ccc(F)cc3)n2)C(=O)NC2(C#N)CC2)cc1Cl [Example 36, N-[(2S)-3-[3-chloro-4-(2-methoxyethoxy)phenyl]-1-[(1-cyanocyclopropyl)amino]-1-oxopropan-2-yl]-2-(4-fluorophenyl)triazole-4-carboxamide] |

Same assay, conditions: bloodstream forms of T. b. rhodesiense STIB 900, 70 h incubation

| IC50 [µM] | SMILES |
| --- | --- |
| 16.1 | N#CC1(NC(=O)[C@H](Cc2ccc(OC(F)(F)F)c(Cl)c2)NC(c2nnc(-c3ccc(Br)cc3)o2)C(F)(F)F)CC1 (stereo partly drawn) [Example 20, (2S)-2-(1-(5-(4-bromophenyl)-1,3,4-oxadiazol-2-yl)-2,2,2-trifluoroethylamino)-3-(3-chloro-4-(trifluoromethoxy)phenyl)-N-(1-cyanocyclopropyl)propanamide] |
